The test system of this test is SMN protein in SMA patient fibroblast cells (GM03813). The test is described as follows: SMN protein assay in cultured cells (SMN HTRF). The class given is cell-based. Particulars: Homo sapiens, SMA Type 1 patient fibroblasts, 48 hours; for EC (1.5-fold): 7-point concentration curve, 1.5 times SMN protein vs vehicle, read-out: EC1.5x SMN protein (EC1.5x concentration for SMN protein expression); for maximal fold induction: fold increase relative to vehicle control, read-out: max. fold increase of SMN protein. From the text: The term “EC1.5x concentration for SMN protein expression” (or “EC1.5x SMN protein”) is defined as that concentration of test compound that is effective in producing 1.5 times the amount of SMN protein in an SMA patient fibroblast cell compared to the amount produced from the vehicle control.
The SMN HTRF (homogeneous time resolved fluorescence) assay is used to quantify the level of SMN protein in SMA patient fibroblast cells treated with test compounds. Materials used and respective sources are listed below in Table 4.
Cells are thawed and cultured in DMEM-10% FBS for 72 hours. Cells are trypsinized, counted and re-suspended to a concentration of 25,000 cells/mL in DMEM-10% FBS. The cell suspensions are plated at 5,000 cells per well in a 96 well microtiter plate and incubated for 3 to […]. Test compounds are serially diluted 3.16-fold in 100% DMSO to generate a 7-point concentration curve. 1 μL of test compound solution is transferred to cell-containing wells and cells are incubated for 48 hours in a cell culture incubator (37° C., 5% CO2, […]). Triplicate samples are set up for each test compound concentration. After 48 hours, the supernatant is removed from the wells and 25 μL of the RIPA lysis buffer, containing protease inhibitors, is added to the wells and incubated with shaking at room temperature for 1 hour. 25 μL of the diluent is added and then 35 μL of the resulting lysate is transferred to a 384-well plate, where each well contains 5 μL of the antibody solution (1:100 dilution of anti-SMN d2 and anti-SMN kryptate in SMN reconstitution buffer). The plate is centrifuged for 1 minute to bring the solution to the bottom of the wells, then incubated overnight at room temperature. Fluorescence for each well of the plate at 665 nm and 620 nm is measured on an EnVision multilabel plate reader (Perkin-Elmer).
The normalized fluorescence signal is calculated for each sample, Blank and vehicle control well by dividing the signal at 665 nm by the signal at 620 nm. Normalizing the signal accounts for possible fluorescence quenching due to the matrix effect of the lysate. The ΔF value (a measurement of SMN protein abundance as a percent value) for each sample well is calculated by subtracting the normalized average fluorescence for the Blank control wells from the normalized fluorescence for each sample well, then dividing this difference by the normalized average fluorescence for the Blank control wells and multiplying the resulting value by 100. The ΔF value for each sample well represents the SMN protein abundance from test compound-treated samples. The ΔF value for each sample well is divided by the ΔF value for the vehicle control wells to calculate the fold increase in SMN protein abundance relative to the vehicle control. Table 5 provides EC1.5x concentrations for SMN protein expression that was obtained from the 7-point concentration data generated according to the above procedure for particular compounds of the present invention.
Table 6 provides the maximum fold increase of SMN protein that was obtained from the 7-point concentration data generated according to the above procedure for particular compounds of the present invention
A general note: Time-resolved FRET reads energy transfer from a long-lived donor to a nearby acceptor.

The structures appear in SMILES notation.

Take `Cc1cn2nc(-c3cc(=O)n4cc(N5CCNC6(CC6)C5)ccc4n3)ccc2n1` [Example 19, 7-(4,7-diazaspiro[2.5]octan-7-yl)-2-(2-methylimidazo[1,2-b]pyridazin-6-yl)pyrido[1,2-a]pyrimidin-4-one]: the EC (1.5-fold) stood at 0.0298 µM and the maximal fold induction worked out at 1.83.
`Cc1cn2nc(-c3cc(=O)n4cc(N5C[C@@H](C)N[C@@H](C)C5)cc(C)c4n3)cc(C)c2n1` [Example 26, 2-(2,8-dimethylimidazo[1,2-b]pyridazin-6-yl)-7-[(3R,5S)-3,5-dimethylpiperazin-1-yl]-9-methyl-pyrido[1,2-a]pyrimidin-4-one]: the EC (1.5-fold) came out at 1.23 µM and the maximal fold induction stood at 1.52.
Take `Cc1cn2nc(-c3cc(=O)n4cc(N5CCNC(C)(C)C5)cc(C)c4n3)cc(C)c2n1` [Example 27, 2-(2,8-dimethylimidazo[1,2-b]pyridazin-6-yl)-7-(3,3-dimethylpiperazin-1-yl)-9-methyl-pyrido[1,2-a]pyrimidin-4-one]: the EC (1.5-fold) is 0.127 µM and the maximal fold induction is 1.57.

(Values after US11827646B2, “Compounds for treating spinal muscular atrophy” (Hoffmann-La Roche Inc., priority 2014, dated 2023).)
